Results as given in ChEMBL document CHEMBL4007472, “Identification of novel TACE inhibitors compatible with topical application” (Bioorg Med Chem Lett, 2017).
In brackets after ≈: the same amount, converted by molar mass.

Legend:
[1] = target: Disintegrin and metalloproteinase domain-containing protein 17 (Sus scrofa, UniProt O77636); assay: Inhibition of porcine spleen TACE using Mca-Pro-LeuAla-Gln-Ala-Val-Dpa-Arg-Ser-Ser-Ser-[…]-NH2 as substrate by fluorescence assay
[2] = target: T1, Disintegrin and metalloproteinase domain-containing protein 17 (Homo sapiens, UniProt P78536); assay: Inhibition of TACE in human PBMC assessed as inhibition of LPS-stimulated TNFalpha production
[3] = target: T1, Disintegrin and metalloproteinase domain-containing protein 17; assay: Inhibition of TACE in NHEK assessed as reduction in LPS/TPA-stimulated TNFalpha production preincubated for 1 hr followed by LPS/TPA stimulation for 24 hrs by HTRF assay
[4] = Stability in human liver microsomes assessed as parent compound remaining at 1 uM after 15 mins by LC-MS/MS analysis; assay type: ADME, microsome; details: read-out: Stability
[5] = Aqueous solubility of the compound; assay type: physicochemical
[6] = target: T1, Disintegrin and metalloproteinase domain-containing protein 17; assay: Inhibition of recombinant human TACE catalytic domain using Mca-Pro-Leu-Ala-Gln-Ala-Val-Dpa-Arg-Ser-Ser-Ser-Arg-NH2 as substrate after 2 hrs by fluorescence assay
[7] = target: T1, Disintegrin and metalloproteinase domain-containing protein 17; assay: Inhibition of TACE (unknown origin)
[8] = target: T1, Disintegrin and metalloproteinase domain-containing protein 17; assay: Inhibition of TACE (unknown origin) by cell based assay
[9] = target: Disintegrin and metalloproteinase domain-containing protein 17 (Mus musculus, UniProt Q9Z0F8); assay: Inhibition of TACE in mouse RAW264.7 cells assessed as inhibition of LPS-stimulated TNFalpha production pretreated for 1 hr followed by LPS stimulation for 4 hrs by ELISA; assay type: cell-based; details: read-out: IC50
[10] = target: T1, Disintegrin and metalloproteinase domain-containing protein 17; assay: Inhibition of recombinant TACE catalytic domain (unknown origin) using Abz-LAQAVRSSSR-Dpa as substrate preincubated for 10 mins followed by substrate addition measured after 10 mins by FRET assay; details: read-out: pIC50 (converted)

Disintegrin and metalloproteinase domain-containing protein 17 (Sus scrofa, UniProt O77636), sequence (O77636 whole entry, the tested form may be a part): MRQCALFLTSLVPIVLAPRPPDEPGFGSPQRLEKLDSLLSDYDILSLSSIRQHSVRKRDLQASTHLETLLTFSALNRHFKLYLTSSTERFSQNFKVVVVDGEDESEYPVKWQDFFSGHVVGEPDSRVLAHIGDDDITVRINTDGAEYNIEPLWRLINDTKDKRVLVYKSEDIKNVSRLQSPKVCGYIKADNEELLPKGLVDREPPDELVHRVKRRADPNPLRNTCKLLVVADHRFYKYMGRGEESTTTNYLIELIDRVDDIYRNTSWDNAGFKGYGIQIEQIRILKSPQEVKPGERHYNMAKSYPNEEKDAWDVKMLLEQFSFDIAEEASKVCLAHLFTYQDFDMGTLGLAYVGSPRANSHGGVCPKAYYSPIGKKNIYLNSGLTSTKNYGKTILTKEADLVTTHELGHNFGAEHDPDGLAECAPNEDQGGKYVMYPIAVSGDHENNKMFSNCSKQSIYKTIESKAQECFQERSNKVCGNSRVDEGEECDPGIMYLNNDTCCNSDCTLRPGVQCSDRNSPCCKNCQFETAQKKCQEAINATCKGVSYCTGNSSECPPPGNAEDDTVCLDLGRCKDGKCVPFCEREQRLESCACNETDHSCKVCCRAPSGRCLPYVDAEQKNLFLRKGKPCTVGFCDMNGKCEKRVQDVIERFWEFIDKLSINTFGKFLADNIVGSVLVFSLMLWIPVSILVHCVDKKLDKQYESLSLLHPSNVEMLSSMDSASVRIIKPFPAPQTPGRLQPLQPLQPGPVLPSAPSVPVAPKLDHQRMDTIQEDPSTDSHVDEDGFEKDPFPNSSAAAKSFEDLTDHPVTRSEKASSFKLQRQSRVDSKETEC
T1 sequence (P78536 whole entry, the tested form may be a part): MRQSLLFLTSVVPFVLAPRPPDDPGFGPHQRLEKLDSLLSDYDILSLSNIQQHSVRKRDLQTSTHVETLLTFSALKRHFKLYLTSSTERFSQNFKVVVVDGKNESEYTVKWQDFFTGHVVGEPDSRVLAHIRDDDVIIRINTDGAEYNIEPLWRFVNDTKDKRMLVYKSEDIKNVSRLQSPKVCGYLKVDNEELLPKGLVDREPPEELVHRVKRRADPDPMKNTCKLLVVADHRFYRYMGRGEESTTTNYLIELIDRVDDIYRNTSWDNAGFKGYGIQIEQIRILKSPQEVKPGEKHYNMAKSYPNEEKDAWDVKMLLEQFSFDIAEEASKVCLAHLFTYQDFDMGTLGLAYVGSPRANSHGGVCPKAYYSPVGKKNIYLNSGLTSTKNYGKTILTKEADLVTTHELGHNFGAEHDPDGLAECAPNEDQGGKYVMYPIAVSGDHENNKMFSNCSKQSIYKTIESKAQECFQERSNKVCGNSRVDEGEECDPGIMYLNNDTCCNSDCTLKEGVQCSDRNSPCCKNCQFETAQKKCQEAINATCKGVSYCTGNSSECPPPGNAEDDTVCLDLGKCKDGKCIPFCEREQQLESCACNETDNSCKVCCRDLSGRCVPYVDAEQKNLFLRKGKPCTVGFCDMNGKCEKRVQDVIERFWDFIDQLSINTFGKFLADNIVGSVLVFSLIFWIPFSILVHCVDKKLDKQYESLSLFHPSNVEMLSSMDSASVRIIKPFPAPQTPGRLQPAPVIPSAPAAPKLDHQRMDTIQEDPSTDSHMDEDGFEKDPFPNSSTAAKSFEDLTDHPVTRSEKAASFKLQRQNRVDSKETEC
Disintegrin and metalloproteinase domain-containing protein 17 (Mus musculus, UniProt Q9Z0F8), sequence (Q9Z0F8 whole entry, the tested form may be a part): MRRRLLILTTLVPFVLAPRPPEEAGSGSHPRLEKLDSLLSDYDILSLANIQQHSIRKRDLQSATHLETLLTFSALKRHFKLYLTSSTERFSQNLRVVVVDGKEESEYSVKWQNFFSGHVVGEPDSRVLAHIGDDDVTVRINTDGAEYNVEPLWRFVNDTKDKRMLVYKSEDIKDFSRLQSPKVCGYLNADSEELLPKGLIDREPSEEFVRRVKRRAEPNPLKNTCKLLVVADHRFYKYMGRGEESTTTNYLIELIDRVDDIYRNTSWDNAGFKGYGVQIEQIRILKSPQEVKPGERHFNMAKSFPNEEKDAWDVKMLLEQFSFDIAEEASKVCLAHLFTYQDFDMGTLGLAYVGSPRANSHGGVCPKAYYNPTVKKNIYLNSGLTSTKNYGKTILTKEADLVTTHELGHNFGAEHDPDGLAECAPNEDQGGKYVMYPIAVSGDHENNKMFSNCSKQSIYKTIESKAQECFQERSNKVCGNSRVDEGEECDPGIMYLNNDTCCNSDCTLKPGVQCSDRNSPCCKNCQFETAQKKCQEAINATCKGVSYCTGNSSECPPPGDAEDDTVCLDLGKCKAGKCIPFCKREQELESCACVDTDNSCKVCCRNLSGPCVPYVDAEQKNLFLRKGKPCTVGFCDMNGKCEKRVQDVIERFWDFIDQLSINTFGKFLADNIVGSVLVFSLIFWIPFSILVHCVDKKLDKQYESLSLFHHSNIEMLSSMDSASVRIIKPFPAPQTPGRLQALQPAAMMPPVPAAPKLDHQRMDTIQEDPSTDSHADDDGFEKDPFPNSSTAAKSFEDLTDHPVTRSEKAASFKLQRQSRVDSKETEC

IC50 [1] [nM] | IC50 [2] [nM] | IC50 [6] [nM] | Structure (SMILES) | further results
177 | 350 |  | CC(C)C[C@H](C(=O)NO)N1CCNc2cc(OCc3ccccc3)ccc2S1 | 
 |  | 13 | Cc1cc(COc2ccc(S(=O)(=O)N3CCN(C(=O)C4CC4)C(C(=O)NO)C3)cc2)c2c(n1)CCCC2 (centres undefined) | IC50 [3]: 3100 nM; remaining at […], 1 µM [4]: 88%; solubility [5]: 58 µM (≈ 30.7 µg/mL)
 |  |  | O=C(c1ccccc1)[C@@H]1Cc2ccc(cc2)OCCCC[C@H](C(=O)NO)[C@@H](CCCc2cc(Br)cc(Br)c2)C(=O)N1 | IC50 [7]: 79.4 nM; IC50 ([8]; read-out: IC50): 5000 nM
 |  | 29 | Cc1cc(COc2ccc(S(=O)(=O)N3CCN(S(C)(=O)=O)C(C(=O)NO)C3)cc2)c2c(n1)CCCC2 (centres undefined) | remaining at […], 1 µM [4]: 88%
153 | 940 |  | C[C@H](C(=O)NO)N1CCNc2cc(OCc3cc(Cl)cc(Cl)c3)ccc2S1 | 
129 | 470 |  | C[C@H](C(=O)NO)N1CCNc2cc(Oc3cccc([N+](=O)[O-])c3)ccc2S1 | 
 |  | 60 | Cc1cc(COc2ccc(S(=O)(=O)N3CCCC(C(=O)NO)C3)cc2)c2ccccc2n1 (centres undefined) | IC50 [3]: > 10000 nM; solubility [5]: < 1 µM
 |  | 160 | Cc1cc(COc2ccc(S(=O)(=O)N3CCN(C)C(C(=O)NO)C3)cc2)c2c(n1)CCCC2 (centres undefined) | remaining at […], 1 µM [4]: 80%
 |  | 23 | CCC(=O)N1CCN(S(=O)(=O)c2ccc(OCc3cc(C)nc4c3CCCC4)cc2)CC1C(=O)NO (centres undefined) | remaining at […], 1 µM [4]: 100%
 |  | 14 | CC(=O)N1CCN(S(=O)(=O)c2ccc(OCc3cc(C)nc4c3CCCC4)cc2)CC1C(=O)NO (centres undefined) | IC50 [3]: 9100 nM; remaining at […], 1 µM [4]: 92%; solubility [5]: 61 µM (≈ 30.7 µg/mL)
758 | 840 |  | C[C@H](C(=O)NO)N1CCNc2cc(Oc3ccc(C(F)(F)F)cc3)ccc2S1 | 
 |  | 16 | Cc1cc(COc2ccc(S(=O)(=O)N3CCN(C(=O)c4ccccc4)C(C(=O)NO)C3)cc2)c2c(n1)CCCC2 (centres undefined) | remaining at […], 1 µM [4]: 85%
5 | 1900 |  | COc1cc(COc2ccc3c(c2)NCCN([C@H](CCCCNS(C)(=O)=O)C(=O)NO)S3)cc(OC)c1 | 
89 | 9500 |  | CC(C)C[C@H](C(=O)NO)N1CCNc2cc(O)ccc2S1 | 
 |  |  | CNC(=O)[C@@H]1Cc2ccc(cc2)OCCCC[C@H](C(=O)NO)[C@@H](CCCc2cc(OC)ccc2OC)C(=O)N1 | IC50 [7]: 6.31 nM; IC50 ([8]; read-out: pIC50 (converted)): 3980 nM
 |  | 150 | Cc1cc(COc2ccc(S(=O)(=O)N3CCN(C4CCC4)C(C(=O)NO)C3)cc2)c2c(n1)CCCC2 (centres undefined) | IC50 [3]: > 10000 nM; remaining at […], 1 µM [4]: 54%
51 | 8200 |  | CCOc1cc(COc2ccc3c(c2)NCCN([C@@H](C(=O)NO)C(C)C)S3)cc(OCC)c1 | 
242 | 6200 |  | CCOc1cc(COc2ccc3c(c2)NCCN([C@H](CCC(=O)OC)C(=O)NO)S3)cc(OCC)c1 | 
290 | 24500 |  | Cc1nc(COc2ccc3c(c2)NCCN([C@@H](C(=O)NO)C(C)C)S3)sc1C | 
 |  | 35 | Cc1cc(COc2ccc(S(=O)(=O)N3CCC(C)(C(=O)NO)C3)cc2)c2ccccc2n1 (centres undefined) | IC50 [3]: > 10000 nM; solubility [5]: 41 µM (≈ 18.7 µg/mL)
11 | 1200 |  | C[C@H](C(=O)NO)N1CCNc2cc(Oc3ccc([N+](=O)[O-])cc3)ccc2S1 | 

IC50 [1] [nM] | IC50 [2] [nM] | IC50 [6] [nM] | Structure (SMILES) | further results
 |  | 6 | Cc1cc(COc2ccc(S(=O)(=O)NC[C@@H](C(=O)NO)N3CCCCC3)cc2)c2c(n1)CCCC2 | IC50 [3]: 60 nM
17 | 5400 |  | COc1cc(COc2ccc3c(c2)NCCN([C@H](CC(C)C)C(=O)NO)S3)cc(OC)c1 | 
177 | 7200 |  | COC(=O)CC[C@H](C(=O)NO)N1CCNc2cc(OCc3cc(OC)cc(OC)c3)ccc2S1 | 
13 | 1100 |  | CCOc1cc(COc2ccc3c(c2)NCCN([C@H](CCCC(=O)OC)C(=O)NO)S3)cc(OCC)c1 | 
 |  |  | COCCOc1cc(CCC[C@H]2C(=O)N[C@H](C(=O)c3ccccc3)Cc3ccc(cc3)OCCCC[C@@H]2C(=O)NO)cc(OC)c1 | IC50 [7]: 79.4 nM; IC50 ([8]; read-out: pIC50 (converted)): 15800 nM
 |  | 40 | COC(=O)N1CCN(S(=O)(=O)c2ccc(OCc3cc(C)nc4c3CCCC4)cc2)CC1C(=O)NO (centres undefined) | remaining at […], 1 µM [4]: 100%
544 | 2900 |  | Cc1cc(COc2ccc3c(c2)NCCN([C@H](C)C(=O)NO)S3)cc(C)n1 | 
 |  |  | CNC(=O)[C@@H]1Cc2ccc(cc2)OCCCC[C@H](C(=O)NO)[C@@H](CCCc2ccc(Cl)cc2)C(=O)N1 | IC50 [7]: 3.16 nM; IC50 ([8]; read-out: pIC50 (converted)): 398 nM
 |  | 84 | Cc1cc(COc2ccc(S(=O)(=O)N3Cc4ccccc4C(C(=O)NO)C3)cc2)c2ccccc2n1 (centres undefined) | IC50 [3]: > 10000 nM
10 | 4000 |  | COc1cc(COc2ccc3c(c2)NCCN([C@@H](C(=O)NO)C(C)C)S3)cc(OC)c1 | 
 |  |  | CNC(=O)[C@@H]1Cc2ccc(cc2)OCCCC[C@H](C(=O)NO)[C@@H](CCCc2cc(C(F)(F)F)cc(C(F)(F)F)c2)C(=O)N1 | IC50 [7]: 31.6 nM; IC50 ([8]; read-out: pIC50 (converted)): 316 nM
 |  | 19 | Cc1cc(COc2ccc(S(=O)(=O)N3CCN(C(=O)C4CCC4)C(C(=O)NO)C3)cc2)c2c(n1)CCCC2 (centres undefined) | remaining at […], 1 µM [4]: 83%
 |  | 210 | Cc1cc(COc2ccc(S(=O)(=O)N3CCC(C(=O)NO)C3)cc2)c2c(n1)CCCC2 (centres undefined) | IC50 [3]: > 10000 nM
 |  | 350 | CC(=O)N1C[C@@H](S(=O)(=O)c2ccc(OCc3cc(C)nc4c3CCCC4)cc2)C[C@H]1C(=O)NO | IC50 [3]: > 10000 nM
 |  | 23 | Cc1cc(COc2ccc(S(=O)(=O)N3CCN(C(=O)CC(C)C)C(C(=O)NO)C3)cc2)c2c(n1)CCCC2 (centres undefined) | remaining at […], 1 µM [4]: 64%
27 | 770 |  | COc1cc(COc2ccc3c(c2)NCCN([C@H](C)C(=O)NO)S3)cc(OC)c1 | 
10 | 900 |  | COC(=O)CCC[C@H](C(=O)NO)N1CCNc2cc(OCc3cc(OC)cc(OC)c3)ccc2S1 | 
 |  |  | CC[C@]1(C(=O)NO)CCC[C@H]1NS(=O)(=O)c1ccc(OCc2cc(C)nc3ccccc23)cc1 | IC50 [9]: 1000 nM; IC50 [10]: 2.51 nM
 |  | 26 | Cc1cc(COc2ccc(S(=O)(=O)N3CCN(C(=O)C(C)C)C(C(=O)NO)C3)cc2)c2c(n1)CCCC2 (centres undefined) | remaining at […], 1 µM [4]: 91%
81 | 4500 |  | CCOc1cc(COc2ccc3c(c2)NCCN([C@H](C)C(=O)NO)S3)cc(OCC)c1 | 
